Where a SMILES comes first, the peptide text is derived from it. Bridges are numbered along the chain shown (N, C = ends). [ ]: non-standard residue; d: D form. hPhe(3-Cl-4-CF3) = N[C@@H](CCc1ccc(C(F)(F)F)c(Cl)c1)C(=O)O; NPrPhe(4-CF3) = CCCN[C@@H](Cc1ccc(C(F)(F)F)cc1)C(=O)O; NMeGly(cPent) = CN[C@H](C(=O)O)C1CCCC1; NMeL = CN[C@@H](CC(C)C)C(=O)O; NMeA = CN[C@@H](C)C(=O)O; Aze = O=C(O)[C@@H]1CCN1; Ac4c = NC1(C(=O)O)CCC1; Sar = CNCC(=O)O
Key:
HRAS wild-type protein = HRAS wild-type protein (Homo sapiens, UniProt P01112); test: Binding to HRAS by surface plasmon resonance (SPR), KD and KD ratio to KRAS
In short: (§1)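 Running buffer contained 10 µM GDP and 10 mM MgCl2 to keep RAS in the GDP state, with 4% DMSO at pH 7.4. Compounds were flowed at 100 µL/min in 75 s steps of rising concentration over captured biotin-Avi RAS at 30°C. Sensorgrams were fitted 1:1 for KD.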

[1] = biological target: GDP-bound NRAS wild-type protein (Homo sapiens, UniProt P01111); test: Binding to NRAS by surface plasmon resonance (SPR), KD and KD ratio to KRAS
In short: as §1

[2] = system: human lung cancer strain NCI-H441; format: cell-based
In short: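 Step one: dispense the test compound in serial DMSO dilutions. Step three: add the reagent and measure […].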

[3] = ratio of KD for HRAS wild-type protein to KD for KRAS
[4] = ratio of KD for GDP-bound NRAS wild-type protein to KD for KRAS
[5] = ratio of KD value for HRAS wild-type protein to KD value for KRAS (SPR)
[6] = ratio of KD value for GDP-bound NRAS wild-type protein to KD value for KRAS (SPR)
[7] = ratio of the KD value with respect to HRAS wild-type protein to the KD value with respect to KRAS
[8] = ratio of the KD value with respect to GDP-bound NRAS wild-type protein to the KD value with respect to KRAS

Sequence of GDP-bound NRAS wild-type protein (P01111 whole entry): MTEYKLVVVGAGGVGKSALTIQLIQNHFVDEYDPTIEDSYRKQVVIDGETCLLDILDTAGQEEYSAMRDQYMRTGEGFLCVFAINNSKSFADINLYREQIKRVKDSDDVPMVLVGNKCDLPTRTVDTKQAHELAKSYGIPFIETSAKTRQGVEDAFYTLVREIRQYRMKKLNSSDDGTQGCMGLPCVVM
Sequence of HRAS wild-type protein (P01112 whole entry): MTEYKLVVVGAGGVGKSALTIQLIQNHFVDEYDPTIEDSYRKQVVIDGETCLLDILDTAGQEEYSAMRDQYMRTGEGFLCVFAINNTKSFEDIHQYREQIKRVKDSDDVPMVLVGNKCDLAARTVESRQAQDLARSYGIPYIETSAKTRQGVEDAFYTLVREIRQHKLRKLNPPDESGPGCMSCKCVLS

| Structure (SMILES) | HRAS /KRAS (HRAS wild-type protein; [3]) | NRAS /KRAS [1, 4] | IC50 [2] [µM] | HRAS /KRAS (HRAS wild-type protein; [5]) | NRAS /KRAS [1, 6] | HRAS /KRAS (HRAS wild-type protein; [7]) | NRAS /KRAS [1, 8] |
| --- | --- | --- | --- | --- | --- | --- | --- |
| CCC[C@H]1C(=O)N[C@@H]([C@@H](C)CC)C(=O)N(C)CC(=O)N(C)[C@H]2C/C=C\CCN(C2=O)[C@@H](Cc2ccc(C(F)(F)F)cc2)C(=O)N(C)CC(=O)N[C@@H](CCc2ccc(C(F)(F)F)c(OC)c2)C(=O)N2C[C@H](OCC)C[C@H]2C(=O)N(C)C2(CCC2)C(=O)N(C)[C@@H](C2CCCC2)C(=O)N(C)[C@H](C(=O)N2CCCC2)CC(=O)N1C [PP3105] | A (a compound having 10 or more and less than 20 is denoted as A) | AA (a compound having 20 or more is denoted as AA) | 0.0025 | – | – | – | – |
| CCC[C@H]1C(=O)N[C@@H]([C@@H](C)CC)C(=O)N(C)CC(=O)N(C)[C@H]2C/C=C\CCN(C2=O)[C@@H](Cc2ccc(C)cc2)C(=O)N(C)CC(=O)N[C@@H](CCc2ccc(C(F)(F)F)c(Cl)c2)C(=O)N2C[C@@H](C)C[C@H]2C(=O)NC2(CC(C)(C)C2)C(=O)N(C)[C@@H](C2CCCC2)C(=O)N(C)[C@H](C(=O)N(C)CC)CC(=O)N1C [PP1893] | – | – | 0.0185 | B (a compound having 3 or more and less than 10 is denoted as B) | A (a compound having 10 or more and less than 20 is denoted as A) | – | – |
| CCO[C@@H]1C[C@H]2C(=O)NC3(CC(F)(F)C3)C(=O)N(C)[C@@H](C(CC)CC)C(=O)N(C)[C@H](CC)CC(=O)N(C)[C@@H](CC3CC3)C(=O)N[C@@H]([C@@H](C)CC)C(=O)N(C)CC(=O)N(C)[C@H]3C/C=C\CCN(C3=O)[C@@H](Cc3ccc(C(F)(F)F)cc3)C(=O)N(C)CC(=O)N[C@@H](CCc3cc(F)c(C(F)(F)F)c(F)c3)C(=O)N2C1 [PP1632] | – | – | 0.116 | A (a compound having 10 or more and less than 20 is denoted as A) | A (a compound having 10 or more and less than 20 is denoted as A) | – | – |
| CCC[C@H]1C(=O)N[C@@H]([C@@H](C)CC)C(=O)N(C)CC(=O)N(C)[C@H]2C/C=C\CCN(C2=O)[C@@H](Cc2ccc(C(F)(F)F)cc2)C(=O)N(C)CC(=O)N[C@@H](CCc2ccc3ccn(C)c3c2)C(=O)N2C[C@H](OCC)C[C@H]2C(=O)NC2(CC(C)(C)C2)C(=O)N(C)[C@@H](C2CCCC2)C(=O)N(C)[C@H](C(=O)N(C)C)CC(=O)N1C [PP2901] | A (a compound having 10 or more and less than 20 is denoted as A) | A (a compound having 10 or more and less than 20 is denoted as A) | 0.0865 | – | – | – | – |
| CCO[C@@H]1C[C@H]2C(=O)NC3(CC(C)(C)C3)C(=O)N(C)[C@@H](CC(C)(C)C)C(=O)N(C)[C@H](C(=O)N(C)C)CC(=O)N(C)[C@@H](C(C)C)C(=O)N[C@@H]([C@@H](C)CC)C(=O)N(C)CC(=O)N(C)[C@H]3C/C=C\CCN(C3=O)[C@@H](Cc3ccc(C(F)(F)F)cc3)C(=O)N(C)CC(=O)N[C@@H](CCc3ccc(C(F)(F)F)c(OC)c3)C(=O)N2C1 [PP2773] | B (a compound having 3 or more and less than 10 is denoted as B) | B (a compound having 3 or more and less than 10 is denoted as B) | 0.0086 | – | – | – | – |
| CCO[C@@H]1C[C@H]2C(=O)NC3(CCC3)C(=O)N(C)[C@@H](C3CCCC3)C(=O)N(C)[C@H](C(=O)N3CCC3)CC(=O)N(C)[C@@H](CC)C(=O)N[C@@H]([C@@H](C)CC)C(=O)N(C)CC(=O)N(C)[C@H]3C/C=C\CCN(C3=O)[C@@H](Cc3ccc(C(F)(F)F)cc3)C(=O)N(C)CC(=O)N[C@@H](CCc3cc(F)c(C(F)(F)F)c(F)c3)C(=O)N2C1 [PP1091] | B (a compound having 3 or more and less than 10 is denoted as B) | A (a compound having 10 or more and less than 20 is denoted as A) | 0.0179 | – | – | – | – |
| CCO[C@@H]1C[C@H]2C(=O)NC3(CC(C)(C)C3)C(=O)N(C)[C@@H](C(CC)CC)C(=O)N(C)[C@H](C(=O)N3CCCC3)CC(=O)N(C)[C@@H](CC)C(=O)N[C@@H]([C@@H](C)CC)C(=O)N(C)CC(=O)N(C)[C@H]3C/C=C\CCN(C3=O)[C@@H](Cc3ccc(C)cc3)C(=O)N(C)CC(=O)N[C@@H](CCc3cc(F)c(C(F)(F)F)c(F)c3)C(=O)N2C1 [PP2149] | – | – | 0.0177 | – | – | A (a compound having 10 or more and less than 20 is denoted as A) | A (a compound having 10 or more and less than 20 is denoted as A) |
| CCC[C@H]1C(=O)N[C@@H]([C@@H](C)CC)C(=O)N(C)CC(=O)N(C)[C@H]2C/C=C\CCN(C2=O)[C@@H](Cc2ccc(C)cc2)C(=O)N(C)CC(=O)N[C@@H](CCc2ccc(C(F)(F)F)c(OC)c2)C(=O)N2C[C@H](OCC)C[C@H]2C(=O)N(C)C2(CCC2)C(=O)N(C)[C@@H](C2CCCC2)C(=O)N(C)[C@H](C(=O)N2CCCCC2)CC(=O)N1C [PP3104] | A (a compound having 10 or more and less than 20 is denoted as A) | A (a compound having 10 or more and less than 20 is denoted as A) | 0.0038 | – | – | – | – |
| CC[C@H](C)[C@@H]1NC(=O)[C@H](CC(C)C)N(C)C(=O)C[C@@H](C(=O)N2CCOCC2)N(C)C(=O)[C@H](C2CCCC2)N(C)C(=O)C2(CCCC2)NC(=O)[C@@H]2C[C@H](OC)CN2C(=O)[C@H](CCc2cc(F)c(C(F)(F)F)c(F)c2)NC(=O)CN(C)C(=O)[C@H](Cc2ccc(C(F)(F)F)cc2)N2CCCCC[C@@H](C2=O)N(C)C(=O)CN(C)C1=O [PP0495] | – | – | 0.837 | – | – | B (a compound having 3 or more and less than 10 is denoted as B) | A (a compound having 10 or more and less than 20 is denoted as A) |
| CC[C@H](C)[C@@H]1NC(=O)[C@H](C)N(C)C(=O)C[C@@H](C(=O)N2CCOCC2)N(C)C(=O)[C@H](C2CCCC2)N(C)C(=O)C2(CCCC2)NC(=O)[C@@H]2CCCN2C(=O)[C@H](CCc2cc(F)c(C(F)(F)F)c(F)c2)NC(=O)CN(C)C(=O)[C@H](Cc2ccc(C(F)(F)F)cc2)N2CCCCC[C@@H](C2=O)N(C)C(=O)CN(C)C1=O [PP0487] | – | – | 0.26 | – | – | B (a compound having 3 or more and less than 10 is denoted as B) | B (a compound having 3 or more and less than 10 is denoted as B) |
| CCO[C@@H]1C[C@H]2C(=O)NC3(CC(C)(C)C3)C(=O)N(C)[C@@H](C(CC)CC)C(=O)N(C)[C@H](C(=O)N3CCCC3)CC(=O)N(C)[C@@H](COC)C(=O)N[C@@H]([C@@H](C)CC)C(=O)N(C)CC(=O)N(C)[C@H]3C/C=C\CCN(C3=O)[C@@H](Cc3ccc(C)cc3)C(=O)N(C)CC(=O)N[C@@H](CCc3ccc(C(F)(F)F)c(OC)c3)C(=O)N2C1 [PP2167] | – | – | 0.0391 | – | – | A (a compound having 10 or more and less than 20 is denoted as A) | AA (a compound having 20 or more is denoted as AA) |
| CCCN1C(=O)[C@@H]2CCN2C(=O)[C@H](C)N(C)C(=O)[C@H]([C@@H](C)CC)NC(=O)[C@H](CC(C)C)N(C)C(=O)C[C@@H](C(=O)N(C)C)NC(=O)[C@H](C2CCCC2)N(C)C(=O)C2(CCC2)NC(=O)[C@@H]2CCCN2C(=O)[C@H](CCc2ccc(C(F)(F)F)c(Cl)c2)NC(=O)CN(C)C(=O)[C@@H]1Cc1ccc(C(F)(F)F)cc1 [PP0380] ([NMeL]I[NMeA][Aze][NPrPhe(4-CF3)][Sar][hPhe(3-Cl-4-CF3)]P[Ac4c][NMeGly(cPent)]D-NMe2; lactam N-11) | B (a compound having 3 or more and less than 10 is denoted as B) | C (A compound having a KD ratio of 0.1 or more and less than 3 is denoted as C) | 0.0164 | – | – | – | – |
| CC[C@H](C)[C@@H]1NC(=O)[C@H](CC(C)C)N(C)C(=O)C[C@@H](C(=O)N2CCOCC2)N(C)C(=O)[C@H](C2CCCC2)N(C)C(=O)C2(CCCC2)NC(=O)[C@@H]2CCCN2C(=O)[C@H](CCc2cc(F)c(C(F)(F)F)c(F)c2)NC(=O)CN(C)C(=O)[C@H](Cc2ccc(C(F)(F)F)cc2)N2CCCC[C@@H](C2=O)N(C)C(=O)[C@H](C)NC1=O [PP0543] | – | – | 0.0415 | – | – | B (a compound having 3 or more and less than 10 is denoted as B) | B (a compound having 3 or more and less than 10 is denoted as B) |
| CCO[C@@H]1C[C@H]2C(=O)NC3(CCC3)C(=O)N(C)[C@@H](C3CCCC3)C(=O)N(C)[C@H](C(=O)N3CCOCC3)CC(=O)N(C)[C@@H](CC)C(=O)N[C@@H]([C@@H](C)CC)C(=O)N(C)CC(=O)N(C)[C@H]3CC(C)=CCN(C3=O)[C@@H](Cc3ccc(C(F)(F)F)cc3)C(=O)N(C)CC(=O)N[C@@H](CCc3cc(F)c(C(F)(F)F)c(F)c3)C(=O)N2C1 [PP1041] | C (A compound having a KD ratio of 0.1 or more and less than 3 is denoted as C) | C (A compound having a KD ratio of 0.1 or more and less than 3 is denoted as C) | 0.223 | – | – | – | – |
| CCC[C@H]1C(=O)N[C@@H]([C@@H](C)CC)C(=O)N(C)CC(=O)N(C)[C@H]2C/C=C\CCN(C2=O)[C@@H](Cc2ccc(C)cc2)C(=O)N(C)CC(=O)N[C@@H](CCc2ccc(Cl)c(Cl)c2)C(=O)N2C[C@H](OCC)C[C@H]2C(=O)NC2(CC(C)(C)C2)C(=O)N(C)[C@@H](C(CC)CC)C(=O)N(C)[C@H](C(=O)N(C)C)CC(=O)N1C [PP2184] | – | – | 0.0292 | – | – | A (a compound having 10 or more and less than 20 is denoted as A) | AA (a compound having 20 or more is denoted as AA) |
| CCCOC[C@H]1C(=O)N[C@@H]([C@@H](C)CC)C(=O)N(C)CC(=O)N(C)[C@H]2C/C=C\CCN(C2=O)[C@@H](Cc2ccc(C(F)(F)F)cc2)C(=O)N(C)CC(=O)N[C@@H](CCc2cc(F)c(C(F)(F)F)c(F)c2)C(=O)N2C[C@H](F)C[C@H]2C(=O)NC2(CC(C)(C)C2)C(=O)N(C)[C@@H](C2CCCC2)C(=O)N(C)[C@H](C(=O)N(C)CCC)CC(=O)N1C [PP1698] | – | – | 0.0051 | A (a compound having 10 or more and less than 20 is denoted as A) | A (a compound having 10 or more and less than 20 is denoted as A) | – | – |

— patent publication EP4603105A1, “PHARMACEUTICAL COMPOSITION CONTAINING CYCLIC COMPOUND HAVING SELECTIVE KRAS INHIBITORY EFFECT AGAINST HRAS AND NRAS” (CHUGAI SEIYAKU KABUSHIKI KAISHA, priority 2022, dated 2024)
